Reference: US12377104B1, “Methods for treating a fatty liver disease” (Madrigal Pharmaceuticals, Inc., priority 2024, dated 2025)
Read-outs that look alike come from different tables or passages of the source.

Assay: Resmetirom exposure parameters by dose, quartile and body weight
Format: in vivo, human
Conditions: for AUC / Cmax: human, in vivo, oral
Procedure: Various body weight cutoffs for dosing were evaluated.

CC(C)c1cc(Oc2c(Cl)cc(-n3nc(C#N)c(=O)[nH]c3=O)cc2Cl)n[nH]c1=O [Resmetirom, 2-(3,5-dichloro-4-((5-isopropyl-6-oxo-1,6-dihydropyridazin-3-yl)oxy)phenyl)-3,5-dioxo-2,3,4,5-tetrahydro-1,2,4-triazine-6-carbonitrile]
t1/2α Geometric Mean (100 mg, <80 kg): 1.26 h
t1/2α Mean (100 mg, <80 kg): 1.47 h
t1/2α Median (100 mg, <80 kg): 1.44 h
t1/2β Geometric Mean (100 mg, <80 kg): 5.36 h
t1/2β Mean (100 mg, <80 kg): 6.85 h
t1/2β Median (100 mg, <80 kg): 4.41 h
Percentage of Cave,ss in quartile (100 mg; Q1: [20-155) ng/mL): 19%
Percentage of Cave,ss in quartile (100 mg; Q2: [155-219) ng/mL): 19%
Percentage of Cave,ss in quartile (100 mg; Q3: [219-321) ng/mL): 28%
Percentage of Cave,ss in quartile (100 mg, Q4: [321-1326] ng/mL): 34%
Cmin,ss Geometric Mean (100 mg, ≥110 kg): 16.2 ng/mL
Cmin,ss Mean (100 mg, ≥110 kg): 43.4 ng/mL
Cmin,ss Median (100 mg, ≥110 kg): 12.8 ng/mL
t1/2α Geometric Mean (100 mg, ≥110 kg): 1.24 h
t1/2α Mean (100 mg, ≥110 kg): 1.38 h
t1/2α Median (100 mg, ≥110 kg): 1.30 h
t1/2β Geometric Mean (100 mg, ≥110 kg): 5.32 h
t1/2β Mean (100 mg, ≥110 kg): 6.33 h
t1/2β Median (100 mg, ≥110 kg): 4.50 h
AUC (80 mg, 80-<90 kg, read-out: AUCtau,ss Geometric Mean): 6010 ng·h/mL
AUC (80 mg, 80-<90 kg, read-out: AUCtau,ss Mean): 6660 ng·h/mL
AUC (80 mg, 80-<90 kg, read-out: AUCtau,ss Median): 5750 ng·h/mL
Cmax (80 mg, 80-<90 kg, read-out: Cmax,ss Geometric Mean): 816 ng/mL
Cmax (80 mg, 80-<90 kg, read-out: Cmax,ss Mean): 869 ng/mL
Cmax (80 mg, 80-<90 kg, read-out: Cmax,ss Median): 870 ng/mL
AUC (80 mg, 90-<100 kg, read-out: AUCtau,ss Geometric Mean): 5060 ng·h/mL
AUC (80 mg, 90-<100 kg, read-out: AUCtau,ss Mean): 5790 ng·h/mL
AUC (80 mg, 90-<100 kg, read-out: AUCtau,ss Median): 5030 ng·h/mL
Cmax (80 mg, 90-<100 kg, read-out: Cmax,ss Geometric Mean): 745 ng/mL
Cmax (80 mg, 90-<100 kg, read-out: Cmax,ss Mean): 789 ng/mL
Cmax (80 mg, 90-<100 kg, read-out: Cmax,ss Median): 795 ng/mL
AUC (80 mg, 100-<110 kg, read-out: AUCtau,ss Geometric Mean): 4370 ng·h/mL
AUC (80 mg, 100-<110 kg, read-out: AUCtau,ss Mean): 4740 ng·h/mL
AUC (80 mg, 100-<110 kg, read-out: AUCtau,ss Median): 4400 ng·h/mL
Cmax (80 mg, 100-<110 kg, read-out: Cmax,ss Geometric Mean): 624 ng/mL
Cmax (80 mg, 100-<110 kg, read-out: Cmax,ss Mean): 654 ng/mL
Cmax (80 mg, 100-<110 kg, read-out: Cmax,ss Median): 644 ng/mL
AUC (80 mg, <80 kg, read-out: AUCtau,ss Geometric Mean): 8080 ng·h/mL
AUC (80 mg, <80 kg, read-out: AUCtau,ss Mean): 9230 ng·h/mL
AUC (80 mg, <80 kg, read-out: AUCtau,ss Median): 8180 ng·h/mL
Cmax (80 mg, <80 kg, read-out: Cmax,ss Geometric Mean): 1120 ng/mL
Cmax (80 mg, <80 kg, read-out: Cmax,ss Mean): 1210 ng/mL
Cmax (80 mg, <80 kg, read-out: Cmax,ss Median): 1140 ng/mL
AUC (80 mg, ≥110 kg, read-out: AUCtau,ss Geometric Mean): 3470 ng·h/mL
AUC (80 mg, ≥110 kg, read-out: AUCtau,ss Mean): 3750 ng·h/mL
AUC (80 mg, ≥110 kg, read-out: AUCtau,ss Median): 3550 ng·h/mL
Cmax (80 mg, ≥110 kg, read-out: Cmax,ss Geometric Mean): 489 ng/mL
Cmax (80 mg, ≥110 kg, read-out: Cmax,ss Mean): 520 ng/mL
Cmax (80 mg, ≥110 kg, read-out: Cmax,ss Median): 504 ng/mL
AUC (100 mg, 80-<90 kg, read-out: AUCtau,ss Geometric Mean): 8550 ng·h/mL
AUC (100 mg, 80-<90 kg, read-out: AUCtau,ss Mean): 9660 ng·h/mL
AUC (100 mg, 80-<90 kg, read-out: AUCtau,ss Median): 7550 ng·h/mL
Cmax (100 mg, 80-<90 kg, read-out: Cmax,ss Geometric Mean): 1160 ng/mL
Cmax (100 mg, 80-<90 kg, read-out: Cmax,ss Mean): 1220 ng/mL
Cmax (100 mg, 80-<90 kg, read-out: Cmax,ss Median): 1200 ng/mL
AUC (100 mg, 90-<100 kg, read-out: AUCtau,ss Geometric Mean): 7990 ng·h/mL
AUC (100 mg, 90-<100 kg, read-out: AUCtau,ss Mean): 9010 ng·h/mL
AUC (100 mg, 90-<100 kg, read-out: AUCtau,ss Median): 7600 ng·h/mL
Cmax (100 mg, 90-<100 kg, read-out: Cmax,ss Geometric Mean): 954 ng/mL
Cmax (100 mg, 90-<100 kg, read-out: Cmax,ss Mean): 1010 ng/mL
Cmax (100 mg, 90-<100 kg, read-out: Cmax,ss Median): 1060 ng/mL
AUC (100 mg, 100-<110 kg, read-out: AUCtau,ss Geometric Mean): 6690 ng·h/mL
AUC (100 mg, 100-<110 kg, read-out: AUCtau,ss Mean): 7430 ng·h/mL
AUC (100 mg, 100-<110 kg, read-out: AUCtau,ss Median): 6250 ng·h/mL
Cmax (100 mg, 100-<110 kg, read-out: Cmax,ss Geometric Mean): 905 ng/mL
Cmax (100 mg, 100-<110 kg, read-out: Cmax,ss Mean): 958 ng/mL
Cmax (100 mg, 100-<110 kg, read-out: Cmax,ss Median): 966 ng/mL
AUC (100 mg, <80 kg, read-out: AUCtau,ss Geometric Mean): 8680 ng·h/mL
AUC (100 mg, <80 kg, read-out: AUCtau,ss Mean): 10800 ng·h/mL
AUC (100 mg, <80 kg, read-out: AUCtau,ss Median): 9610 ng·h/mL
Cmax (100 mg, <80 kg, read-out: Cmax,ss Geometric Mean): 1120 ng/mL
Cmax (100 mg, <80 kg, read-out: Cmax,ss Mean): 1310 ng/mL
Cmax (100 mg, <80 kg, read-out: Cmax,ss Median): 1370 ng/mL
AUC (100 mg, ≥110 kg, read-out: AUCtau,ss Geometric Mean): 4330 ng·h/mL
AUC (100 mg, ≥110 kg, read-out: AUCtau,ss Mean): 4940 ng·h/mL
AUC (100 mg, ≥110 kg, read-out: AUCtau,ss Median): 3900 ng·h/mL
Cmax (100 mg, ≥110 kg, read-out: Cmax,ss Geometric Mean): 575 ng/mL
Cmax (100 mg, ≥110 kg, read-out: Cmax,ss Mean): 642 ng/mL
Cmax (100 mg, ≥110 kg, read-out: Cmax,ss Median): 647 ng/mL
